Results: ChEMBL document CHEMBL3045939, “Synthesis and evaluation of fused pyrimidine derivatives as anti-inflammatory, antiproliferative and antimicrobial agents” (Med Chem Res, 2012)
Converted amounts (≈) assume the structure as drawn.

Columns and labels:
[1] = system: Escherichia coli; assay: Antimicrobial activity against Escherichia coli ATCC 25922 assessed as reduction in log10 CFU/ml at MIC after 12 hr by time kill study relative to control; format: functional; set-up: scale not given: the % may be the effect or the level left
[2] = system: Candida albicans; assay: Antimicrobial activity against Candida albicans ATCC 24433 assessed as reduction in log10 CFU/ml at MIC after 12 hr by time kill study relative to control; format: functional; set-up: scale not given: the % may be the effect or the level left
[3] = system: Rattus norvegicus; assay: Anti-inflammatory activity in Rattus norvegicus Wistar albino (rat) assessed as carrageenan-induced paw volume at 100 mg/kg, po administered 1 hr prior to carrageenan-challenge measured at 4 hr (reference value: 1.2825 +/- 0.0862 mm3); format: functional
[4] = system: Pseudomonas aeruginosa; assay: Antimicrobial activity against Pseudomonas aeruginosa ATCC 27853 assessed as reduction in log10 CFU/ml at MIC after 24 hr by time kill study relative to control; format: functional; set-up: scale not given: the % may be the effect or the level left
[5] = system: Aspergillus flavus; assay: Antimicrobial activity against Aspergillus flavus ATCC 15517 assessed as reduction in log10 CFU/ml at MIC after 24 hr by time kill study relative to control; format: functional; set-up: scale not given: the % may be the effect or the level left
[6] = system: Staphylococcus aureus; assay: Antimicrobial activity against Staphylococcus aureus ATCC 25923 assessed as reduction in log10 CFU/ml at MIC after 4 hr by time kill study relative to control; format: functional; set-up: scale not given: the % may be the effect or the level left
[7] = system: Candida albicans; assay: Antimicrobial activity against Candida albicans ATCC 24433 after 48 hr by broth micro dilution assay; format: functional; conditions: ATCC 24433, 48 h
[8] = system: Candida albicans; assay: Antimicrobial activity against Candida albicans ATCC 24433 assessed as reduction in log10 CFU/ml at MIC after 24 hr by time kill study relative to control; format: functional; set-up: scale not given: the % may be the effect or the level left
[9] = system: Staphylococcus aureus; assay: Antimicrobial activity against Staphylococcus aureus ATCC 25923 assessed as reduction in log10 CFU/ml at MIC after 24 hr by time kill study relative to control; format: functional; set-up: scale not given: the % may be the effect or the level left
[10] = system: Staphylococcus aureus; assay: Antimicrobial activity against Staphylococcus aureus ATCC 25923 assessed as reduction in log10 CFU/ml at MIC after 2 hr by time kill study relative to control; format: functional; set-up: scale not given: the % may be the effect or the level left
[11] = system: Rattus norvegicus; assay: Anti-inflammatory activity in Rattus norvegicus Wistar albino (rat) assessed as carrageenan-induced paw volume at 100 mg/kg, po administered 1 hr prior to carrageenan-challenge measured at 5 hr (reference value: 1.24 +/- 0.0754 mm3); format: functional
[12] = system: Candida albicans; assay: Antimicrobial activity against Candida albicans ATCC 24433 assessed as reduction in log10 CFU/ml at MIC after 6 hr by time kill study relative to control; format: functional; set-up: scale not given: the % may be the effect or the level left
[13] = system: Escherichia coli; assay: Antimicrobial activity against Escherichia coli ATCC 25922 assessed as reduction in log10 CFU/ml at MIC after 4 hr by time kill study relative to control; format: functional; set-up: scale not given: the % may be the effect or the level left
[14] = system: Staphylococcus aureus; assay: Antimicrobial activity against Staphylococcus aureus ATCC 25923 assessed as reduction in log10 CFU/ml at MIC after 6 hr by time kill study relative to control; format: functional; set-up: scale not given: the % may be the effect or the level left
[15] = system: Rattus norvegicus; assay: Anti-inflammatory activity in Rattus norvegicus Wistar albino (rat) assessed as carrageenan-induced paw volume at 100 mg/kg, po administered 1 hr prior to carrageenan-challenge measured at 1 hr (reference value: 1.2075 +/- 0.0405 mm3); format: functional
[16] = system: HEp-2; assay: Cytotoxicity against Homo sapiens (human) Hep2 cells after 24 hr by MTT assay; format: functional, cell-based; conditions: HEp-2, 24 h
[17] = system: Aspergillus flavus; assay: Antimicrobial activity against Aspergillus flavus ATCC 15517 assessed as reduction in log10 CFU/ml at MIC after 12 hr by time kill study relative to control; format: functional; set-up: scale not given: the % may be the effect or the level left
[18] = system: Pseudomonas aeruginosa; assay: Antimicrobial activity against Pseudomonas aeruginosa ATCC 27853 assessed as reduction in log10 CFU/ml at MIC after 4 hr by time kill study relative to control; format: functional; set-up: scale not given: the % may be the effect or the level left
[19] = system: Escherichia coli; assay: Antimicrobial activity against Escherichia coli ATCC 25922 assessed as reduction in log10 CFU/ml at MIC after 24 hr by time kill study relative to control; format: functional; set-up: scale not given: the % may be the effect or the level left
[20] = system: Pseudomonas aeruginosa; assay: Antimicrobial activity against Pseudomonas aeruginosa ATCC 27853 assessed as reduction in log10 CFU/ml at MIC after 2 hr by time kill study relative to control; format: functional; set-up: scale not given: the % may be the effect or the level left
[21] = Cytotoxicity against Homo sapiens (human) Chang cells after 24 hr by MTT assay; format: functional, cell-based
[22] = system: Staphylococcus aureus; assay: Antimicrobial activity against Staphylococcus aureus ATCC 25923 assessed as reduction in log10 CFU/ml at MIC after 12 hr by time kill study relative to control; format: functional; set-up: scale not given: the % may be the effect or the level left
[23] = system: Staphylococcus aureus; assay: Antimicrobial activity against Staphylococcus aureus ATCC 25923 after 24 hr by broth micro dilution assay; format: functional; conditions: ATCC 25923, 24 h
[24] = system: Escherichia coli; assay: Antimicrobial activity against Escherichia coli ATCC 25922 after 24 hr by broth micro dilution assay; format: functional; conditions: ATCC 25922, 24 h
[25] = system: Aspergillus flavus; assay: Antimicrobial activity against Aspergillus flavus ATCC 15517 assessed as reduction in log10 CFU/ml at MIC after 4 hr by time kill study relative to control; format: functional; set-up: scale not given: the % may be the effect or the level left
[26] = system: Candida albicans; assay: Antimicrobial activity against Candida albicans ATCC 24433 assessed as reduction in log10 CFU/ml at MIC after 4 hr by time kill study relative to control; format: functional; set-up: scale not given: the % may be the effect or the level left
[27] = system: Pseudomonas aeruginosa; assay: Antimicrobial activity against Pseudomonas aeruginosa ATCC 27853 assessed as reduction in log10 CFU/ml at MIC after 12 hr by time kill study relative to control; format: functional; set-up: scale not given: the % may be the effect or the level left
[28] = system: Aspergillus flavus; assay: Antimicrobial activity against Aspergillus flavus ATCC 15517 after 48 hr by broth micro dilution assay; format: functional; conditions: ATCC 15517, 48 h
[29] = system: Aspergillus flavus; assay: Antimicrobial activity against Aspergillus flavus ATCC 15517 assessed as reduction in log10 CFU/ml at MIC after 6 hr by time kill study relative to control; format: functional; set-up: scale not given: the % may be the effect or the level left
[30] = system: Escherichia coli; assay: Antimicrobial activity against Escherichia coli ATCC 25922 assessed as reduction in log10 CFU/ml at MIC after 2 hr by time kill study relative to control; format: functional; set-up: scale not given: the % may be the effect or the level left
[31] = system: Rattus norvegicus; assay: Anti-inflammatory activity in Rattus norvegicus Wistar albino (rat) assessed as carrageenan-induced paw volume at 100 mg/kg, po administered 1 hr prior to carrageenan-challenge measured at 3 hr (reference value: 1.225 +/- 0.0484 mm3); format: functional
[32] = system: Pseudomonas aeruginosa; assay: Antimicrobial activity against Pseudomonas aeruginosa ATCC 27853 assessed as reduction in log10 CFU/ml at MIC after 6 hr by time kill study relative to control; format: functional; set-up: scale not given: the % may be the effect or the level left
[33] = system: HeLa; assay: Cytotoxicity against Homo sapiens (human) HeLa cells after 24 hr by MTT assay; format: functional, cell-based
[34] = system: Candida albicans; assay: Antimicrobial activity against Candida albicans ATCC 24433 assessed as reduction in log10 CFU/ml at MIC after 2 hr by time kill study relative to control; format: functional; set-up: scale not given: the % may be the effect or the level left
[35] = system: Aspergillus flavus; assay: Antimicrobial activity against Aspergillus flavus ATCC 15517 assessed as reduction in log10 CFU/ml at MIC after 2 hr by time kill study relative to control; format: functional; set-up: scale not given: the % may be the effect or the level left
[36] = system: Pseudomonas aeruginosa; assay: Antimicrobial activity against Pseudomonas aeruginosa ATCC 27853 after 24 hr by broth micro dilution assay; format: functional; conditions: ATCC 27853, 24 h
[37] = system: Rattus norvegicus; assay: Anti-inflammatory activity in Rattus norvegicus Wistar albino (rat) assessed as carrageenan-induced paw volume at 100 mg/kg, po administered 1 hr prior to carrageenan-challenge measured at 2 hr (reference value: 1.4175 +/- 0.1931 mm3); format: functional
[38] = system: Escherichia coli; assay: Antimicrobial activity against Escherichia coli ATCC 25922 assessed as reduction in log10 CFU/ml at MIC after 6 hr by time kill study relative to control; format: functional; set-up: scale not given: the % may be the effect or the level left
[39] = system: Rattus norvegicus; assay: Anti-inflammatory activity in Rattus norvegicus Wistar albino (rat) assessed as inhibition of carrageenan-induced paw edema at 100 mg/kg, po administered 1 hr prior to carrageenan-challenge measured at 2 hr relative to control; format: functional

O=c1c2cc(Cl)ccc2nc(-c2ccccc2)n1-c1ccc(F)cc1
Activity [1]: 100%
Activity [2]: 100%
Activity [3]: 1.275 mm3
Activity [4]: 100%
Activity [5]: 100%
Activity [6]: 66.7%
MIC [7]: 1.56 µg/mL (≈ 4.45 µM)
Activity [8]: 100%
Activity [9]: 100%
Activity [10]: 33.3%
Activity [11]: 1.21 mm3
Activity [12]: 100%
Activity [13]: 66.7%
Activity [14]: 100%
Activity [15]: 1.22 mm3
IC50 [16]: 10.8 µg/mL (≈ 30.7 µM)
Activity [17]: 66.7%
Activity [18]: 66.7%
Activity [19]: 100%
Activity [20]: 66.7%
IC50 [21]: 16.6 µg/mL (≈ 47.3 µM)
Activity [22]: 100%
MIC [23]: 0.39 µg/mL (≈ 1.11 µM)
MIC [24]: 0.39 µg/mL (≈ 1.11 µM)
Activity [25]: 22.2%
Activity [26]: 66.7%
Activity [27]: 100%
MIC [28]: 6.25 µg/mL (≈ 17.8 µM)
Activity [29]: 88.9%
Activity [30]: 33.3%
Activity [31]: 1.21 mm3
Activity [32]: 100%
IC50 [33]: < 25 µg/mL
Activity [34]: 44.4%
Activity [35]: 11.1%
MIC [36]: 0.78 µg/mL (≈ 2.22 µM)
Activity [37]: 1.2675 mm3
Activity [38]: 100%

O=c1c2cc(Cl)ccc2nc(-c2ccccc2)n1-c1cccc(Cl)c1
Activity [3]: 1.0575 mm3
MIC [7]: > 100 µg/mL
Activity [11]: 1.125 mm3
Activity [15]: 1.1325 mm3
IC50 [16]: < 6.25 µg/mL
IC50 [21]: < 6.25 µg/mL
MIC [23]: 3.12 µg/mL (≈ 8.5 µM)
MIC [24]: 6.25 µg/mL (≈ 17 µM)
MIC [28]: > 100 µg/mL
Activity [31]: 1.06 mm3
IC50 [33]: < 25 µg/mL
inhibition in vivo at 100 mg/kg [39]: 86.8%
MIC [36]: 25 µg/mL (≈ 68.1 µM)
Activity [37]: 1.0625 mm3

CN(C)CCn1c(-c2ccccc2)nc2ccc(Cl)cc2c1=O
Activity [3]: 1.165 mm3
MIC [7]: 50 µg/mL (≈ 153 µM)
Activity [11]: 1.215 mm3
Activity [15]: 1.1825 mm3
IC50 [16]: 20.5 µg/mL (≈ 62.5 µM)
IC50 [21]: 33.4 µg/mL (≈ 102 µM)
MIC [23]: 1.56 µg/mL (≈ 4.76 µM)
MIC [24]: 3.12 µg/mL (≈ 9.52 µM)
MIC [28]: 100 µg/mL (≈ 305 µM)
Activity [31]: 1.1875 mm3
IC50 [33]: > 200 µg/mL
inhibition in vivo at 100 mg/kg [39]: 88.4%
MIC [36]: 6.25 µg/mL (≈ 19.1 µM)

O=c1c2cc(Cl)ccc2nc(-c2ccccc2)n1-c1ccc(Cl)cc1
Activity [3]: 1.1425 mm3
MIC [7]: > 100 µg/mL
Activity [11]: 1.1825 mm3
Activity [15]: 1.135 mm3
IC50 [16]: < 25 µg/mL
IC50 [21]: 6.25 µg/mL (≈ 17 µM)
MIC [23]: 3.12 µg/mL (≈ 8.5 µM)
MIC [24]: 12.5 µg/mL (≈ 34 µM)
MIC [28]: > 100 µg/mL
Activity [31]: 1.23 mm3
IC50 [33]: < 25 µg/mL
MIC [36]: 12.5 µg/mL (≈ 34 µM)
Activity [37]: 1.11 mm3

CC(C)Cc1ccc(C(C)C(=O)O)cc1 (centres undefined) [IBUPROFEN]
inhibition in vivo at 100 mg/kg [39]: 65.3%
